From ChEMBL document CHEMBL4831559, “Antitarget Selectivity and Tolerability of Novel Pyrrolo[2,3-d]pyrimidine RET Inhibitors” (ACS Med Chem Lett, 2021) come the findings set out here.

SMILES strings stand for the structures. Active and inactive are the calls of the source. The rule behind the calls is not given here. Some results are limits rather than exact numbers.

Data set [1] concerns BaF3. As to conditions: Mus musculus, dose 10.0 mg/kg, time 21.0 day.
Data set [2] in a line: Half life in BALB/c mouse at 10 mg/kg, po measured by LC-MS/MS analysis. The data set is classed as ADME, organism-based. The note with it: in vivo.
Data set [3] in a line: fCmax in nude mouse xenografted with KIF5B-RET BaF3 cells xenografted at 10 mg/kg, po qd for 14 days. The note with it: in vivo, 336 h, time 14 day. The data set is classed as ADME, organism-based.
For data set [4], the system named is Mus musculus. Put plainly: Antitumor activity against mouse KIF5B-RET BaF3 cells xenografted in nude mouse assessed as tumor regression at 30 mg/kg, po qd measured after 16 days. The data set is classed as functional, organism-based. The note with it: time 16.0 day.
The nature of data set [5]: Cmax in BALB/c mouse at 2 mg/kg, iv measured by LC-MS/MS analysis. Details: route intravenous, dose 2 mg/kg. Type of data set: ADME, organism-based. The note with it: in vivo.
The nature of data set [6]: Half life in BALB/c mouse at 2 mg/kg, iv measured by LC-MS/MS analysis. Type of data set: ADME, organism-based. The note with it: in vivo.
Data set [7] has as its system BaF3. Put plainly: Antitumor activity against mouse KIF5B-RET BaF3 cells xenografted in nude mouse assessed as tumor regression at 1 to 10 mg/kg, po qd measured after 16 days. Type of data set: functional, organism-based. As to conditions: dose 1-10 mg/kg, time 16.0 day.
Data set [8] in a line: Cmax in nude mouse xenografted with KIF5B-RET BaF3 cells xenografted at 10 mg/kg, po qd for 14 days. Type of data set: ADME, organism-based. More on the design: route oral, time 14 day, dose 10 mg/kg. As to conditions: in vivo.
Data set [9] in a line: Toxicity in nude mouse transfected with mouse KIF5B-RET BaF3 cells assessed as adverse effect at 30 mg/kg, po qd measured after 14 days. The note with it: in vivo, 336 h, time 14 day. Type of data set: organism-based.
Data set [10] is described as follows: AUC in BALB/c mouse at 10 mg/kg, po measured by LC-MS/MS analysis. The data set is classed as ADME, organism-based. More on the design: dose 10 mg/kg. The note with it: in vivo.
A short description of data set [11]: Volume of distribution at steady state in BALB/c mouse at 2 mg/kg, iv measured by LC-MS/MS analysis. The note with it: in vivo, read-out: Vdss. Type of data set: ADME, organism-based.
The target of data set [12] is T1, Voltage-gated inwardly rectifying potassium channel KCNH2 (Homo sapiens, UniProt Q12809). Put plainly: Displacement of [3H]-dofetilide from human ERG expressed in CHO cell after 90 mins by microbeta liquid scintillation counting method. The data set is classed as cell-based. A general note: In a radioligand displacement assay an active substance lowers the binding of a labelled ligand.
T1 sequence (Q12809 whole entry): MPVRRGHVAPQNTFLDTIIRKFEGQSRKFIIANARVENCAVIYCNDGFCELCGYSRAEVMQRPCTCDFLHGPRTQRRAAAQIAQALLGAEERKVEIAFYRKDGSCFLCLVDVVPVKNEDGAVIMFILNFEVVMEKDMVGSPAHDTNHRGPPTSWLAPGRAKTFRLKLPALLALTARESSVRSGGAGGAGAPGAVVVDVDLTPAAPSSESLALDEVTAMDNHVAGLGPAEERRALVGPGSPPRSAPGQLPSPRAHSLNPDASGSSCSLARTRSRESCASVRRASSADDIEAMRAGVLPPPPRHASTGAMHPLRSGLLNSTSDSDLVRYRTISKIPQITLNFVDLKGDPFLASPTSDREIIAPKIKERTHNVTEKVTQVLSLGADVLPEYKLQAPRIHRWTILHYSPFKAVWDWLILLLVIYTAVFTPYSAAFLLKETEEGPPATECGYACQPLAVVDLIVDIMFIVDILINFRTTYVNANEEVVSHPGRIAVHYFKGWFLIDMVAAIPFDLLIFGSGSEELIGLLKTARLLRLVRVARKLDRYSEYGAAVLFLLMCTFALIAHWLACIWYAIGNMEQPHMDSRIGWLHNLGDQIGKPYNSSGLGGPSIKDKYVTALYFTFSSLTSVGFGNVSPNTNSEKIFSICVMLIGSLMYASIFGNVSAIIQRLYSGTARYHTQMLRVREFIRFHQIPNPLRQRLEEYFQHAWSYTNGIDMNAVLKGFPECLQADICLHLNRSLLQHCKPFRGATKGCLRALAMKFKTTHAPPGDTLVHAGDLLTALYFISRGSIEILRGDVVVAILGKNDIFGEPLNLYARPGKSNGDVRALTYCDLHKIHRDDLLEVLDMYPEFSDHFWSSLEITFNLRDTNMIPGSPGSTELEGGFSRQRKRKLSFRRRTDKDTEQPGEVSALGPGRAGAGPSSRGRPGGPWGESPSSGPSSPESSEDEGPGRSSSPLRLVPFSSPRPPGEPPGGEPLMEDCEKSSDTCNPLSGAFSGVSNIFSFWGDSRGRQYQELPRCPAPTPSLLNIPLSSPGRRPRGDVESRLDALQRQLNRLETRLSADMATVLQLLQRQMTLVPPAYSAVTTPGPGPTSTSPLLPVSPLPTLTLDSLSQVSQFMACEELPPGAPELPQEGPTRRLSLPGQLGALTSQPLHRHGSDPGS

For data set [13], the system named is Mus musculus. Put plainly: Antitumor activity against mouse KIF5B-RET BaF3 cells xenografted in nude mouse assessed as tumor regression at 10 mg/kg, po qd measured after 16 days. The data set is classed as functional, organism-based. As to conditions: time 16.0 day.
Data set [14] in a line: Cmax in BALB/c mouse at 10 mg/kg, po measured by LC-MS/MS analysis. The data set is classed as ADME, organism-based. Details: route oral, dose 10 mg/kg. As to conditions: in vivo.
Data set [15] can be described thus: AUC in nude mouse xenografted with KIF5B-RET BaF3 cells xenografted at 10 mg/kg, po qd for 14 days. More on the design: time 14 day, dose 10 mg/kg. As to conditions: in vivo. Type of data set: ADME, organism-based.
Data set [16] has as its system BaF3. Description: cells. As to conditions: Mus musculus, BaF3, 48 h.
Description: Antiproliferative activity against mouse BaF3 cells assessed as reduction in cell proliferation incubated for 48 hrs by cell proliferation assay
Data set [17] is described as follows: Plasma protein binding in mouse at 5 uM measured after 16 hrs by LC-MS/MS based rapid equilibrium dialysis analysis. Type of data set: ADME, cell-free. As to conditions: read-out: PPB (converted).
The nature of data set [18]: Clearance in BALB/c mouse at 2 mg/kg, iv measured by LC-MS/MS analysis. The data set is classed as ADME, organism-based. As to conditions: in vivo.
The nature of data set [19]: fAUC in nude mouse xenografted with KIF5B-RET BaF3 cells xenografted at 10 mg/kg, po qd for 14 days. The data set is classed as ADME, organism-based. As to conditions: in vivo, 336 h, time 14 day.
The nature of data set [20]: AUC in BALB/c mouse at 2 mg/kg, iv measured by LC-MS/MS analysis. Type of data set: ADME, organism-based. More on the design: dose 2 mg/kg. The note with it: in vivo.
A short description of data set [21]: Oral bioavailability in BALB/c mouse at 10 mg/kg measured by LC-MS/MS analysis. The data set is classed as ADME, organism-based. As to conditions: in vivo.
For data set [22], the target named is T1, Voltage-gated inwardly rectifying potassium channel KCNH2. Description: Inhibition of human ERG expressed in CHO cells by manual patch clamp assay. The data set is classed as cell-based. A general note: In patch-clamp work, channel activity is measured electrically.
A short description of data set [23]: Toxicity in nude mouse transfected with mouse KIF5B-RET BaF3 cells assessed as adverse effect at 10 mg/kg, po qd measured after 14 days. The data set is classed as organism-based. As to conditions: in vivo, 336 h, time 14 day.
Data set [24] can be described thus: AUC in nude mouse xenografted with KIF5B-RET BaF3 cells xenografted at 60 mg/kg, po qd for 14 days. Type of data set: ADME, organism-based. The note with it: in vivo. More on the design: time 14 day, dose 60 mg/kg.
Data set [25] can be described thus: Toxicity in nude mouse transfected with mouse KIF5B-RET BaF3 cells assessed as body weight loss at 10 to 60 mg/kg, po qd measured after 14 days. Type of data set: organism-based. As to conditions: in vivo, 336 h, dose 10-60 mg/kg, time 14 day.
A short description of data set [26]: fAUC in nude mouse xenografted with KIF5B-RET BaF3 cells xenografted at 60 mg/kg, po qd for 14 days. As to conditions: in vivo, 336 h, time 14 day. The data set is classed as ADME, organism-based.
The subject of data set [27] is BaF3. Put plainly: Antitumor activity against mouse KIF5B-RET BaF3 cells xenografted in nude mouse assessed as tumor regression at 60 mg/kg, po qd measured after 14 days. The data set is classed as functional, organism-based. As to conditions: time 14.0 day.
Data set [28] is described as follows: Cmax in nude mouse xenografted with KIF5B-RET BaF3 cells xenografted at 60 mg/kg, po qd for 14 days. The note with it: in vivo. The data set is classed as ADME, organism-based. More on the design: route oral, time 14 day, dose 60 mg/kg.
Data set [29] in a line: fCmax in nude mouse xenografted with KIF5B-RET BaF3 cells xenografted at 60 mg/kg, po qd for 14 days. The data set is classed as ADME, organism-based. The note with it: in vivo, 336 h, time 14 day.
Data set [30] in a line: Toxicity in nude mouse transfected with mouse KIF5B-RET BaF3 cells assessed as adverse effect at 10 to 60 mg/kg, po qd measured after 14 days. Type of data set: organism-based. The note with it: in vivo, 336 h, dose 10-60 mg/kg, time 14 day.
Data set [31] has as its target Proto-oncogene tyrosine-protein kinase receptor Ret (Mus musculus) (UniProt P35546). Description: In vivo inhibition of RET phosphorylation in mouse KIF5B-RET BaF3 cells transfected in nude mouse […] at 60 mg/kg, po qd measured after 5 hrs. Type of data set: functional, organism-based.

Sequence of Proto-oncogene tyrosine-protein kinase receptor Ret (Mus musculus) (P35546 whole entry): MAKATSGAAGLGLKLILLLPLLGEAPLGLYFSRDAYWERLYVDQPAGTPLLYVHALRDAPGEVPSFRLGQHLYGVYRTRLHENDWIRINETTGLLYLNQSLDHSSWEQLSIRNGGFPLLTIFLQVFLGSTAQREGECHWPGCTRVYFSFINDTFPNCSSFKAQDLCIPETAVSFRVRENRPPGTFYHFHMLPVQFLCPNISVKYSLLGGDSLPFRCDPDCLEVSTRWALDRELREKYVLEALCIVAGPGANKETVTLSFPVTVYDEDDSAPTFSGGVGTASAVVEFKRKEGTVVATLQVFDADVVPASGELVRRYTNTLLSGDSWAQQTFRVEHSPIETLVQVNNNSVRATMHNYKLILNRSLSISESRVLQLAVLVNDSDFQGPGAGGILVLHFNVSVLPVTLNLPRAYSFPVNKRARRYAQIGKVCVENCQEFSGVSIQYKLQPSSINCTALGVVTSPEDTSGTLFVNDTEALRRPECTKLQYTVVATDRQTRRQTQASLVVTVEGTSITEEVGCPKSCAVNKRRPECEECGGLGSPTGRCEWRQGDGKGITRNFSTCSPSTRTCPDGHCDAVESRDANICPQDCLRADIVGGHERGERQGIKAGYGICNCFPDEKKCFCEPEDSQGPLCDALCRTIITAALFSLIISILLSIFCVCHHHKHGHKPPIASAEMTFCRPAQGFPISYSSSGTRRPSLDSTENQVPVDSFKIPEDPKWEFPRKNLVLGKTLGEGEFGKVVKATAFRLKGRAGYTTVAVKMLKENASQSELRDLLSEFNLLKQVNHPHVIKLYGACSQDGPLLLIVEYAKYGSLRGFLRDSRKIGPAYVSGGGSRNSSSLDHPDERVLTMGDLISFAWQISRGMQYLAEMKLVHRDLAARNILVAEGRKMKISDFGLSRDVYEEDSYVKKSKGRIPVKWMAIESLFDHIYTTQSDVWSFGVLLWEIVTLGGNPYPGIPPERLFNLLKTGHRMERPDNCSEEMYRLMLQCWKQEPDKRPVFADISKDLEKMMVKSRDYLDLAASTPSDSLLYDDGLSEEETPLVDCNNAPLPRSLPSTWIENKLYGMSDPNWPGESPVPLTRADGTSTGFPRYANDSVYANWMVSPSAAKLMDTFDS

Broadly, the half-life is the time in which the quantity being followed falls by half. Lower therefore signals rapid decline. Usually Cmax stands for the maximum level reached in the sampled fluid or tissue. In general, AUC refers to the area under the concentration-time curve, a measure of exposure. A lower AUC goes with less exposure. Usually IC50 stands for the concentration that inhibits the measured activity by half. High values mean weaker potency in that assay, low ones greater potency in that assay. As a reminder, the clearance is the volume of plasma or blood freed of the substance per unit of time. A high value points to a high capacity for elimination. For orientation: bioavailability means the share of a dose that reaches the circulation, judged against a reference dose that is usually intravenous. Higher therefore signals much systemic uptake. For `COC(=O)NC12CCC(n3cc(-c4cc(N)c(Cl)cc4F)c4c(N)ncnc43)(CC1)CC2`, the inhibition result in data set [1] is “Active”. The half-life is 19 h in [2] and 16 h in [6]. In addition, the fCmax in data set [3] worked out at 0.055 µM. The result in data set [4], in [7] and in [13] was Active. The Cmax in [5] amounted to 3.5 µM; in [8], 8.4 µM; in data set [14], 7.9 µM. The Activity result in data set [9] is reported as “Non-Toxic”. The figures for the AUC in data set [10] and in [20] were 160 µM·h and 40 µM·h, respectively. The Vd in data set [11] was determined as 2.4 L/kg. Further, the IC50 in [12] was > 30 µM; in [16], 4.1 µM; in [22], 6 µM. Further, the AUC at 336 h in [15] turned out to be 136 µM·h. For the same compound, in [17], the fraction unbound at 16 h, 5 µM was 0.0065. The clearance in [18] came out at 1.8 mL/min/kg. Besides, the fAUC in [19] is 0.9 µM·h. The bioavailability in data set [21] stood at 78%.

For `COC(=O)N[C@H]1CC[C@@H](n2cc(-c3ccc(Cl)c(N)c3)c3c(N)ncnc32)CC1`, the half-life was 3.7 h in [2] and 3 h in data set [6]. This compound yielded a fCmax in data set [3] of 0.26 µM. Besides, the Cmax in data set [5] worked out at 14 µM; in [8] it was 8.3 µM; in data set [14], 10 µM. In data set [23], the Activity result is “Non-Toxic”. For the same compound, the AUC in data set [10] was found to be 120 µM·h; in [20], 41 µM·h. The Vd in data set [11] was determined as 0.37 L/kg. In addition, the IC50 in [12] worked out at 25 µM; in data set [16], 4.6 µM; in [22] it was 5.3 µM. Moreover, the result in data set [13] was Active. In addition, the exposure (AUC) at 336 h in data set [15] came to 50 µM·h. Further, the fraction unbound at 16 h, 5 µM in data set [17] was 0.031. The clearance in data set [18] was determined as 1.9 mL/min/kg. This compound also returned a fAUC in data set [19] of 1.6 µM·h. The compound also yielded a bioavailability in data set [21] of 60%.

Take `CC(=O)N1CCN([C@H]2C[C@@H](n3cc(-c4cccc(O)c4)c4c(N)ncnc43)C2)CC1`: the IC50 in data set [16] was > 10 µM.

Consider `CC(=O)N1CCN([C@H]2C[C@@H](n3cc(-c4ccc(Cl)c(N)c4)c4c(N)ncnc43)C2)CC1`, for which the half-life is 2.4 h in data set [2] and 1.2 h in data set [6]. The same compound displayed an AUC at 336 h in data set [24] of 115 µM·h. Moreover, the values for the Cmax in [5], in data set [28] and in data set [14] were 5.1 µM, 19 µM and 3.8 µM, respectively. Moreover, the Activity result in [25] and in [30] was “Non-Toxic” in each case. For the same compound, the figures for the AUC in [10] and in data set [20] were 12 µM·h and 5 µM·h, respectively. In [26], the fAUC was 41 µM·h. The Vd in data set [11] was determined as 1.3 L/kg. Further, in data set [27], the result was Active. Moreover, in [29], the fCmax is 6.8 µM. The compound also gave an IC50 in data set [16] of 4.6 µM. In addition, in [31], the inhibition result is “Active”. For the same compound, the fraction unbound at 16 h, 5 µM in [17] is 0.356. This compound yielded a clearance in data set [18] of 15 mL/min/kg. This compound came in with a bioavailability in [21] of 48%.

For `Nc1ncnc2c1c(-c1cccc(O)c1)cn2C1CCCC1`, 1.6 µM corresponded to half-maximal inhibition in data set [16] (IC50).

For `COc1cc(-c2cn([C@H]3C[C@@H](N4CCN(C(C)=O)CC4)C3)c3ncnc(N)c23)ccc1Cl`, the IC50 in [16] was > 10 µM.
